The record followed here is US20240238417A1, “METHODS OF PRODUCING TUMOR VACCINES AND USES THEREOF” (priority 2021, published 2024).

Molecules are shown by their SMILES.

Data set [1] concerns CT26 challenge tumor. The data set is described as follows: gNO, tumor excision and CT26 re-challenge: tumor take and survival. It counts as in vivo, mice. Conditions: about 75 days. The procedure: CT26 tumor-bearing male mice were treated with 20,000 ppm and 50,000 ppm gNO intra-tumorally for 5 minutes. Fourteen days post gNO treatment, all tumors were excised. A week post surgery, all mice were re-challenged via a second inoculation of 5×10^5 CT26 cells, and tumor take and survival were monitored during about 75 days, as depicted in FIG. 21A.

The subject of data set [2] is LLC1 challenge tumor. Briefly: Challenge assay in LLC1 tumor-bearing mice. It counts as in vivo. Conditions: 50,000 ppm NO intra-tumorally for 10 minutes; 9 days post challenge tumor inoculation. The procedure: Challenge tumor inoculation: Up to 21 days after gas treatment was applied to the primary tumor, the appropriate cancer cell suspensions were prepared as described herein and inoculation of cells was repeated on the contralateral flank of the mice. Administration was performed as soon as possible following cell suspension preparation and after manual shaking prior to withdrawal of the cell suspension.
The percentage of challenge tumor take was monitored 2-3 times a week by taking a look at the inoculated site and touching this area to look for small tumors that are not yet visible. Naïve mice inoculated with tumor cells for the first time served as an internal control.
gNO local administration was tested in a Challenge assay, as depicted in FIG. 15A, in order to evaluate whether treating the primary tumor by gNO based ablation stimulates an anti-tumor immune response that results in rejection of a secondary tumor inoculation. A secondary, “challenge”, tumor cells inoculation also serves as a metastasis model.
LLC1 tumor-bearing mice were treated with 50,000 ppm NO administered intra-tumorally by a 23G hypodermic needle for 10 minutes. Up to 2 weeks post the first gas treatment all gas-treated mice were re-inoculated with 2.5×10^5 LLC1 cells suspended in 100 μL HBSS into the left flank. Naïve mice inoculated with 5×10^5 CT-26 cells served as an internal control for cells' quality.

Data set [3] can be described thus: pH of cell suspension after ex-vivo gNO treatment of tumor cells. The class given is physicochemical. Conditions: ex-vivo treatment of tumor cells with gNO.

As to `[N]=O` [gNO, nitric oxide], the challenge tumor development result in data set [1] (20,000 ppm and 50,000 ppm gNO 5 minutes, excision day 14, re-challenge a week post surgery) is on record as “no tumor development”. The compound further yielded a survival in data set [1] (50,000 ppm gNO 5 minutes, excision, re-challenge) of 100%. In addition, the “development of a secondary (challenge) LLC1 tumor” value in data set [2] was “none of the gas-treated mice developed a secondary tumor”. In addition, the “pH of cell suspension comprising gNO-treated tumor cells” value in data set [3] is given as “acidic pH”.
